Patent US20230322723A1, “COMPOUNDS FOR SUPPRESSING EGFR MUTANT CANCER AND PHARMACEUTICAL USE THEREOF” (J2H BIOTECH INC., priority 2020, published 2023)

How the values were obtained:
[1] = Pharmacokinetic evaluation after single oral administration to ICR mice; type: in vivo; conditions: mouse, ICR mice, single oral dose 5 mg/kg, plasma; for AUC(0-t): read-out: AUC0-24
Protocol: Pharmacokinetic tests for the compounds of the present invention were conducted as below. After a single oral administration of the compound of the present invention to ICR mice, the concentration of the compound over time was followed up and analyzed.
The compound of the present invention was suspended in 10% DMSO/90% (30% HPbCD aqueous solution) and orally administered to mice at a dose of 5 mg/kg. Blood was collected at a fixed time and plasma was separated. Drug analysis was performed using HPLC (XBridge column C18, Waters, mobile phase 0.1% formic acid:acetonitrile (30:70, %/%)) and MS/MS (ESI positive, MRM). Mouse blood plasma and each commercially available standard solution were mixed at a ratio of 9:1 to prepare and calibrate at concentrations of […] 5,000 ng/mL. In addition, the preparation of QC samples was prepared by mixing the mouse blood plasma and the standard solution for QC at a ratio of 9:1, and prepared to be concentrations of 100, 750 and 2,500 ng/mL. 100 μL of the plasma sample was transferred to a centrifugation tube, and 10 μL of the internal standard solution and 300 μL of methanol were added, followed by mixing for about 30 seconds for pretreatment. The tube was centrifuged at 3,000×g (4° C.) for about 5 minutes, and the supernatant was taken and transferred to an LC vial and injected into the instrument. Then, the concentration of the compound in mouse plasma was quantified by applying a previously validated assay. For pharmacokinetic parameters, the program WinNonlin 5.2 (Pharsight, USA) was used. AUC0-t, AUC0-∞, Cmax, Tmax, and t1/2 were calculated by Noncompartment modeling (best fit). The pharmacokinetic parameter results were expressed as the mean (Mean) and standard deviation (SD), and were statistically processed using the SPSS program (Statistical Package for the Social Sciences, 10.0K, USA).

[2] = tested on: EGFR^del19+T790M+C797S; experiment: EGFR protein degradation test (Western blot) in Ba/F3 cells expressing mutant EGFR del19+T790M+C797S (DTC); type: cell-based; conditions: compounds at 0.1 μM and 1 μM, 24 hours, Western blot with EGFR antibody
Method in brief: (§1)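 Ba/F3 cells expressing wild-type EGFR, del19+T790M+C797S or L858R+T790M+C797S EGFR were treated with compound at 0.1 μM and 1 μM for 24 h. Lysates (30 μg) were analysed by SDS-PAGE and EGFR Western blot, with bands quantified densitometrically.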

[3] = biological target: T1, EGFR^L858R+T790M+C797S (Homo sapiens, UniProt P00533, C797S/L858R/T790M); experiment: EGFR protein degradation test (Western blot) in Ba/F3 cells expressing mutant EGFR L858R+T790M+C797S (LTC); type: cell-based; conditions: compounds at 0.1 μM and 1 μM, 24 hours, Western blot with EGFR antibody
T1 construct: expressed in transfected cells; host or cells: Ba/F3
T1 sequence (P00533 25-1210 T790M/C797S/L858R): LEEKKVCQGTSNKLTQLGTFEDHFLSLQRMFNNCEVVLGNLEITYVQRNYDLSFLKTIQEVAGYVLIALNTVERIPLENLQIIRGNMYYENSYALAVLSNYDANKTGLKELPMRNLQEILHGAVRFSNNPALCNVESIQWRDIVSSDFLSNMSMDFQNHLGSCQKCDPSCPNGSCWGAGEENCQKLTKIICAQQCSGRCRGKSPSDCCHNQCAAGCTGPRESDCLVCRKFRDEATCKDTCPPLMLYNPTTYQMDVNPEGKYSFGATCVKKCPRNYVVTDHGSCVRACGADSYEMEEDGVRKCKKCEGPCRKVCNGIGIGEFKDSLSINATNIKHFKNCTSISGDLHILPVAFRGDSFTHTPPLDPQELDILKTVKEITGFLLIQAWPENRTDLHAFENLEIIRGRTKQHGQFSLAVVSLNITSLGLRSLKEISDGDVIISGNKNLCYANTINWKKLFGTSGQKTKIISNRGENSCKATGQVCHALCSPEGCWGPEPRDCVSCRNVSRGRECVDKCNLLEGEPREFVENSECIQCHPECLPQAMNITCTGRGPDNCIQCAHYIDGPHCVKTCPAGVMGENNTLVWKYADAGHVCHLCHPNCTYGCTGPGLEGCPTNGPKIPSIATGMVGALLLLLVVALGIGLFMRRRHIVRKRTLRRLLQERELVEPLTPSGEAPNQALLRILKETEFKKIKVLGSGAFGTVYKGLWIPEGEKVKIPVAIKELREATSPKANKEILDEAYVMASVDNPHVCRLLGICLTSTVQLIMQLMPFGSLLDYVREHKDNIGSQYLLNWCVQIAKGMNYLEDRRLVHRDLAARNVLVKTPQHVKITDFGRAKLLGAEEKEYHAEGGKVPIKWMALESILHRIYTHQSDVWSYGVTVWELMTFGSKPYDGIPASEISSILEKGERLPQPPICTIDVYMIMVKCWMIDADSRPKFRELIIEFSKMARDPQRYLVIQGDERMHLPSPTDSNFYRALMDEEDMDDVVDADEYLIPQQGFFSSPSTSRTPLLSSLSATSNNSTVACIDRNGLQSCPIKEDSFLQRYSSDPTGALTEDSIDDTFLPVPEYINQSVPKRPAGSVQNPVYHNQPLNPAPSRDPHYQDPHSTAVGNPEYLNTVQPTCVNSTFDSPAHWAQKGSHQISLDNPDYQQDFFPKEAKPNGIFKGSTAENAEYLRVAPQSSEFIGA
Method in brief: as §1

Structure (SMILES)	half-life [1] [h]	AUC(0-t) [1] [ng·h/mL]	DTC (EGFR^del19+T790M+C797S) protein degradation [2]	LTC (EGFR^L858R+T790M+C797S) protein degradation [3]
COc1cc(N2CCC(CN3CCN(CC(=O)N[C@H](C(=O)N4C[C@H](O)CC4C(=O)NCc4ccc(-c5scnc5C)cc4)C(C)(C)C)CC3)CC2)ccc1Nc1ncc(Cl)c(Nc2ccccc2N(C)S(C)(=O)=O)n1 (stereo in doubt) [Compound 27, (2R,4R)-1-((S)-2-(2-(4-((1-(4-((5-chloro-4-((2-(N-methylmethylsulfonamido)phenyl)amino)pyrimidin-2-yl)amino)-3-methoxyphenyl)piperidin-4-yl)methyl)piperazin-1-yl)acetamido)-3,3-dimethylbutanoyl)-4-hydroxy-N-(4-(4-methylthiazol-5-yl)benzyl)pyrrolidin-2-carboxamide]	8.89	68	++ (Protein degradation > 80%)	++ (Protein degradation > 80%)
COc1cc(N2CCN(CC3CCN(CC(=O)N[C@H](C(=O)N4C[C@H](O)CC4C(=O)NCc4ccc(-c5scnc5C)cc4)C(C)(C)C)CC3)CC2)ccc1Nc1ncc(Cl)c(Nc2ccccc2N(C)S(C)(=O)=O)n1 (stereo in doubt) [Compound 28, (2R,4R)-1-((S)-2-(2-(4-((4-(4-((5-chloro-4-((2-(N-methylmethylsulfonamido)phenyl)amino)pyrimidin-2-yl)amino)-3-methoxyphenyl)piperazin-1-yl)methyl)piperidin-1-yl)acetamido)-3,3-dimethylbutanoyl)-4-hydroxy-N-(4-(4-methylthiazol-5-yl)benzyl)pyrrolidin-2-carboxamide]	6.23	1170	++ (Protein degradation > 80%)	++ (Protein degradation > 80%)
COc1cc(N2CCN(CC3CCN(CC4CCN(c5ccc6c(c5)C(=O)N(C5CCC(=O)NC5=O)C6=O)CC4)CC3)CC2)ccc1Nc1ncc(Cl)c(Nc2ccccc2N(C)S(C)(=O)=O)n1 (stereo not drawn) [Compound 59, N-(2-((5-chloro-2-((4-(4-((1-((1-(2-(2,6-dioxopiperidin-3-yl)-1,3-dioxoisoindolin-5-yl)piperidin-4-yl)methyl)piperidin-4-yl)methyl)piperazin-1-yl)-2-methoxyphenyl)amino)pyrimidin-4-yl)amino)phenyl)-N-methylmethanesulfonamide]			++ (Protein degradation > 80%)	+ (Protein degradation 20~80%)
COc1cc(N2CCC(N3CCN(CC4CN(c5ccc6c(c5)C(=O)N(C5CCC(=O)NC5=O)C6=O)C4)CC3)CC2)ccc1Nc1ncc(Cl)c(Nc2ccccc2N(C)S(C)(=O)=O)n1 (stereo not drawn) [Compound 60, N-(2-((5-chloro-2-((4-(4-(4-((1-(2-(2,6-dioxopiperidin-3-yl)-1,3-dioxoisoindolin-5-yl)azetidin-3-yl)methyl)piperazin-1-yl)piperidin-1-yl)-2-methoxyphenyl)amino)pyrimidin-4-yl)amino)phenyl)-N-methylmethanesulfonamide]			− (Protein degradation < 20%)	++ (Protein degradation > 80%)
COc1cc(N2CCN(CC3CCN(CC4CN(c5ccc6c(c5)C(=O)N(C5CCC(=O)NC5=O)C6=O)C4)CC3)CC2)ccc1Nc1ncc(Cl)c(Nc2ccccc2N(C)S(C)(=O)=O)n1 (stereo not drawn) [Compound 61, N-(2-((5-chloro-2-((4-(4-((1-((1-(2-(2,6-dioxopiperidin-3-yl)-1,3-dioxoisoindolin-5-yl)azetidin-3-yl)methyl)piperidin-4-yl)methyl)piperazin-1-yl)-2-methoxyphenyl)amino)pyrimidin-4-yl)amino)phenyl)-N-methylmethanesulfonamide]			− (Protein degradation < 20%)	+ (Protein degradation 20~80%)
COc1cc(N2CCC(CN3CCC(CNc4cccc5c4C(=O)N(C4CCC(=O)NC4=O)C5=O)CC3)CC2)ccc1Nc1ncc(Cl)c(Nc2ccccc2N(C)S(C)(=O)=O)n1 (stereo not drawn) [Compound 62, N-(2-((5-chloro-2-((4-(4-((4-(((2-(2,6-dioxopiperidin-3-yl)-1,3-dioxoisoindolin-4-yl)amino)methyl)piperidin-1-yl)methyl)piperidin-1-yl)-2-methoxyphenyl)amino)pyrimidin-4-yl)amino)phenyl)-N-methylmethanesulfonamide]			+ (Protein degradation 20~80%)	++ (Protein degradation > 80%)
COc1cc(N2CCC(CN3CCC(CNc4ccc5c(c4)C(=O)N(C4CCC(=O)NC4=O)C5=O)CC3)CC2)ccc1Nc1ncc(Cl)c(Nc2ccccc2N(C)S(C)(=O)=O)n1 (stereo not drawn) [Compound 63, N-(2-((5-chloro-2-((4-(4-((4-(((2-(2,6-dioxopiperidin-3-yl)-1,3-dioxoisoindolin-5-yl)amino)methyl)piperidin-1-yl)methyl)piperidin-1-yl)-2-methoxyphenyl)amino)pyrimidin-4-yl)amino)phenyl)-N-methylmethanesulfonamide]			+ (Protein degradation 20~80%)	++ (Protein degradation > 80%)
COc1cc(N2CCN(CC3CCN(C(=O)CCc4ccc5c(c4)C(=O)N(C4CCC(=O)NC4=O)C5=O)CC3)CC2)ccc1Nc1ncc(Cl)c(Nc2ccccc2N(C)S(C)(=O)=O)n1 (stereo not drawn) [Compound 64, N-(2-((5-chloro-2-((4-(4-((1-(3-(2-(2,6-dioxopiperidin-3-yl)-1,3-dioxoisoindolin-5-yl)propanoyl)piperidin-4-yl)methyl)piperazin-1-yl)-2-methoxyphenyl)amino)pyrimidin-4-yl)amino)phenyl)-N-methylmethanesulfonamide]			− (Protein degradation < 20%)	+ (Protein degradation 20~80%)
COc1cc(N2CCN(CC3CCN(C(=O)CNc4ccc5c(c4)C(=O)N(C4CCC(=O)NC4=O)C5=O)CC3)CC2)ccc1Nc1ncc(Cl)c(Nc2ccccc2N(C)S(C)(=O)=O)n1 (stereo not drawn) [Compound 66, N-(2-((5-chloro-2-((4-(4-((1-((2-(2,6-dioxopiperidin-3-yl)-1,3-dioxoisoindolin-5-yl)glycyl)piperidin-4-yl)methyl)piperazin-1-yl)-2-methoxyphenyl)amino)pyrimidin-4-yl)amino)phenyl)-N-methylmethanesulfonamide]			++ (Protein degradation > 80%)	++ (Protein degradation > 80%)
COc1cc(N2CCC(CN3CCN(c4ccc5c(c4)C(=O)N(C4CCC(=O)NC4=O)C5=O)CC3)CC2)ccc1Nc1ncc(Cl)c(Nc2ccccc2N(C)S(C)(=O)=O)n1 (stereo not drawn) [Compound 67, N-(2-((5-chloro-2-((4-(4-((4-(2-(2,6-dioxopiperidin-3-yl)-1,3-dioxoisoindolin-5-yl)piperazin-1-yl)methyl)piperidin-1-yl)-2-methoxyphenyl)amino)pyrimidin-4-yl)amino)phenyl)-N-methylmethanesulfonamide]			− (Protein degradation < 20%)	++ (Protein degradation > 80%)
COc1cc(N2CCN(CC3CCN(c4ccc5c(c4)C(=O)N(C4CCC(=O)NC4=O)C5=O)CC3)CC2)ccc1Nc1ncc(Cl)c(Nc2ccccc2N(C)S(C)(=O)=O)n1 (stereo not drawn) [Compound 68]			+ (Protein degradation 20~80%)	++ (Protein degradation > 80%)
COc1cc(N2CCC(N3CCN(CC#Cc4ccc5c(c4)C(=O)N(C4CCC(=O)NC4=O)C5=O)CC3)CC2)ccc1Nc1ncc(Cl)c(Nc2ccccc2N(C)S(C)(=O)=O)n1 (stereo not drawn) [Compound 72, N-(2-((5-chloro-2-((4-(4-(4-(3-(2-(2,6-dioxopiperidin-3-yl)-1,3-dioxoisoindolin-5-yl)prop-2-yn-1-yl)piperazin-1-yl)piperidin-1-yl)-2-methoxyphenyl)amino)pyrimidin-4-yl)amino)phenyl)-N-methylmethanesulfonamide]			− (Protein degradation < 20%)	− (Protein degradation < 20%)
COc1cc(N2CCN(CC#Cc3ccc4c(c3)C(=O)N(C3CCC(=O)NC3=O)C4=O)CC2)ccc1Nc1ncc(Cl)c(Nc2ccccc2N(C)S(C)(=O)=O)n1 (stereo not drawn) [Compound 73, N-(2-((5-chloro-2-((4-(4-(3-(2-(2,6-dioxopiperidin-3-yl)-1,3-dioxoisoindolin-5-yl)prop-2-yn-1-yl)piperazin-1-yl)-2-methoxyphenyl)amino)pyrimidin-4-yl)amino)phenyl)-N-methylmethanesulfonamide]			− (Protein degradation < 20%)	− (Protein degradation < 20%)
